Laboratory results as given in patent US7772241B2, “Variolin derivatives and their use as antitumor agents” (Pharma Mar S.A., priority 2001, dated 2010).
Like-named read-outs stand apart in the source and are kept apart here.

Experiments:
[1] = system: LNCaP; test: Inhibition of cells growth by colorimetric (SRB) assay, LNCaP
Procedure, shortened: (§1)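 Human tumour cells seeded at 5×10^3/well in RPMI 1640 10% FBS, attached 18 h, then exposed 48 h to samples at 10 to 10^−8 μg/ml in DMSO/EtOH/PBS (0.5:0.5:99). Growth read by SRB staining after TCA fixation, OD 490 nm, triplicate wells; GI, TGI and LC derived.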

[2] = system: HeLa-APL; test: Inhibition of cells growth by colorimetric (SRB) assay, HeLa-APL; settings: for GI50 / CC50: Homo sapiens, 48 h; for HELA-APL TGI: SRB assay, 48 hours exposure
Description: (§2) The finality of these assays is to interrupt the growth of a “in vitro” tumor cell culture by means a continued exhibition of the cells to the sample to be testing.
(§3) This form of the assay employs 96 well cell culture microplates of 9 mm diameter (Faircloth, 1988; Mosmann, 1983). Most of the cell lines are obtained from American Type Culture Collection (ATCC) derived from different human cancer types.
(§4) Cells are maintained in RPMI 1640 10% FBS, supplemented with 0.1 g/l penicillin and 0.1 g/l streptomycin sulphate and then incubated at 37° C., 5% CO2 and 98% humidity. For the experiments, cells were harvested from subconfluent cultures using trypsin and resuspended in fresh medium before plating.
(§5) Cells are seeded in 96 well microtiter plates, at 5×10^3 cells per well in aliquots of 195 μl medium, and they are allowed to attach to the plate surface by growing in drug free medium for 18 hours. Afterward, samples are added in aliquots of 5 μl in a ranging from 10 to 10^−8 μg/ml, dissolved in DMSO/EtOH/PBS (0.5:0.5:99). After 48 hours exposure, the antitumor effect are measured by the SRB methodology: cells are fixed by adding 50 μl of cold 50% (wt/vol) trichloroacetic acid (TCA) and incubating for 60 minutes at 4° C. Plates are washed with deionized water and dried. One hundred μl of SRB solution (0.4% wt/vol in 1% acetic acid) is added to each microtiter well and incubated for 10 minutes at room temperature. Unbound SRB is removed by washing with 1% acetic acid. Plates are air dried and bound stain is solubilized with Tris buffer. Optical densities are read on a automated spectrophotometric plate reader at a single wavelength of 490 nm.
(§6) The values for mean +/−SD of data from triplicate wells are calculated. Some parameters for cellular responses can be calculated: GI=growth inhibition, TGI=total growth inhibition (cytostatic effect) and LC=cell killing (cytotoxic effect).

[3] = system: IGROV-ET; test: Inhibition of cells growth by colorimetric (SRB) assay, IGROV-ET; settings: for GI50 / CC50: Homo sapiens, 48 h; for GI50: read-out: IGROV-ET GI50, SRB assay, 48 hours exposure; for IGROV-ET TGI: SRB assay, 48 hours exposure
Procedure, shortened: as §1

[4] = system: DU-145; test: Inhibition of cells growth by colorimetric (SRB) assay, DU-145; settings: for GI50 / CC50: Homo sapiens, DU-145, 48 h; for GI50: read-out: DU-145 GI50, SRB assay, 48 hours exposure; for DU-145 TGI: SRB assay, 48 hours exposure
Procedure, shortened: as §1

[5] = system: SK-MEL-28; test: Inhibition of cells growth by colorimetric (SRB) assay, SK-MEL-28; settings: for GI50 / CC50: Homo sapiens, SK-MEL-28, 48 h; for GI50: read-out: MEL-28 GI50, SRB assay, 48 hours exposure; for MEL-28 TGI: SRB assay, 48 hours exposure
Procedure, shortened: as §1

[6] = system: PANC-1; test: Inhibition of cells growth by colorimetric (SRB) assay, PANC-1; settings: for GI50 / CC50: Homo sapiens, PANC-1, 48 h; for GI50: read-out: PANC-1 GI50, SRB assay, 48 hours exposure; for PANC-1 TGI: SRB assay, 48 hours exposure
Procedure, shortened: as §1

[7] = system: LoVo; test: Inhibition of cells growth by colorimetric (SRB) assay, LoVo; settings: for GI50 / CC50: Homo sapiens, LoVo, 48 h; for GI50: read-out: LOVO GI50, SRB assay, 48 hours exposure; for LOVO TGI: SRB assay, 48 hours exposure
Procedure, shortened: as §1

[8] = system: HeLa; test: Inhibition of cells growth by colorimetric (SRB) assay, HeLa; settings: for GI50: Homo sapiens, HeLa, 48 h, read-out: HELA GI50, SRB assay, 48 hours exposure; for HELA TGI: SRB assay, 48 hours exposure
Description: as §2, §3, §4, §5, §6

[9] = system: IGROV-1; test: Inhibition of cells growth by colorimetric (SRB) assay, IGROV-1; settings: for GI50 / CC50: Homo sapiens, IGROV-1, 48 h; for GI50: read-out: IGROV GI50, SRB assay, 48 hours exposure; for IGROV TGI: SRB assay, 48 hours exposure
Procedure, shortened: as §1

[10] = system: A-549; test: Inhibition of cells growth by colorimetric (SRB) assay, A-549; settings: for GI50 / CC50: Homo sapiens, A549, 48 h; for GI50: read-out: A-549 GI50, SRB assay, 48 hours exposure; for A-549 TGI: SRB assay, 48 hours exposure
Procedure, shortened: as §1

[11] = system: K-562; test: Inhibition of cells growth by colorimetric (SRB) assay, K-562
Procedure, shortened: as §1

[12] = system: SK-BR-3; test: Inhibition of cells growth by colorimetric (SRB) assay, SK-BR-3; settings: for GI50 / CC50: Homo sapiens, SK-BR-3, 48 h; for GI50: read-out: SK-BR-3 GI50, SRB assay, 48 hours exposure; for SK-BR-3 TGI: SRB assay, 48 hours exposure
Procedure, shortened: as §1

[13] = system: HT-29; test: Inhibition of cells growth by colorimetric (SRB) assay, HT-29; settings: for GI50 / CC50: Homo sapiens, HT-29, 48 h; for GI50: read-out: HT-29 GI50, SRB assay, 48 hours exposure; for HT-29 TGI: SRB assay, 48 hours exposure
Procedure, shortened: as §1

[14] = system: LoVo-Dox; test: Inhibition of cells growth by colorimetric (SRB) assay, LoVo-Dox; settings: for GI50 / CC50: Homo sapiens, 48 h; for GI50: read-out: LOVO-DOX GI50, SRB assay, 48 hours exposure; for LOVO-DOX TGI: SRB assay, 48 hours exposure
Procedure, shortened: as §1

Cl.Nc1nccc(-c2c3c(O)ccnc3n3c(N)nccc23)n1 [Compound 54]
GI50 ([1]; Homo sapiens, LNCaP, 48 h, read-out: LN-caP GI50, SRB assay, 48 hours exposure): 0.287 µM | CC50 ([1]; Homo sapiens, LNCaP, 48 h, read-out: LN-caP LC50): 1.82 µM | LN-caP TGI ([1]; SRB assay, 48 hours exposure): 7.24E−07 | GI50 ([2]; read-out: HELA-APL GI50): 0.0612 µM | CC50 ([2]; read-out: HELA-APL LC50): 0.27 µM | HELA-APL TGI [2]: 1.28E−07 | GI50 [3]: 0.421 µM | CC50 ([3]; read-out: IGROV-ET LC50): 27.3 µM | IGROV-ET TGI [3]: 1.48E−06 | GI50 [4]: 0.36 µM | CC50 ([4]; read-out: DU-145 LC50): 27.3 µM | DU-145 TGI [4]: 1.32E−06 | GI50 [5]: 0.945 µM | CC50 ([5]; read-out: MEL-28 LC50): 11.4 µM | MEL-28 TGI [5]: 3.22E−06 | GI50 [6]: 0.871 µM | CC50 ([6]; read-out: PANC-1 LC50): 27.3 µM | PANC-1 TGI [6]: 3.28E−06 | GI50 [7]: 0.266 µM | CC50 ([7]; read-out: LOVO LC50): 27.3 µM | LOVO TGI [7]: 1.04E−06 | GI50 [8]: 0.0573 µM | HELA TGI [8]: 1.17E−07 | GI50 [9]: 0.44 µM | CC50 ([9]; read-out: IGROV LC50): 27.3 µM | IGROV TGI [9]: 1.37E−06 | GI50 [10]: 0.339 µM | CC50 ([10]; read-out: A-549 LC50): 27.3 µM | A-549 TGI [10]: 1.10E−06 | GI50 ([11]; Homo sapiens, K562, 48 h, read-out: K-562 GI50, SRB assay, 48 hours exposure): 1.67 µM | CC50 ([11]; Homo sapiens, K562, 48 h, read-out: K-562 LC50): 27.3 µM | K-562 TGI ([11]; SRB assay, 48 hours exposure): 1.44E−05 | GI50 [12]: 0.53 µM | CC50 ([12]; read-out: SK-BR-3 LC50): 2.67 µM | SK-BR-3 TGI [12]: 1.19E−06 | GI50 [13]: 1.69 µM | CC50 ([13]; read-out: HT-29 LC50): 27.3 µM | HT-29 TGI [13]: 8.71E−06 | GI50 [14]: 0.155 µM | CC50 ([14]; read-out: LOVO-DOX LC50): 27.3 µM | LOVO-DOX TGI [14]: 7.32E−07

CSc1nccc(-c2c3c(Cl)ccnc3n3c(N)nccc23)n1.Cl [Compound 108]
GI50 ([2]; read-out: HELA-APL GI50, SRB assay, 48 hours exposure): 0.00954 µM | CC50 ([2]; read-out: HELA-APL LC50, SRB assay, 48 hours exposure): 26.4 µM | HELA-APL TGI [2]: 2.04E−07 | GI50 [3]: 11.3 µM | CC50 ([3]; read-out: IGROV-ET LC50, SRB assay, 48 hours exposure): 26.4 µM | IGROV-ET TGI [3]: 2.64E−05 | GI50 [4]: 1.5 µM | CC50 ([4]; read-out: DU-145 LC50, SRB assay, 48 hours exposure): 26.4 µM | DU-145 TGI [4]: 2.64E−05 | GI50 [5]: 0.925 µM | CC50 ([5]; read-out: MEL-28 LC50, SRB assay, 48 hours exposure): 26.4 µM | MEL-28 TGI [5]: 2.64E−05 | GI50 [6]: 3.37 µM | CC50 ([6]; read-out: PANC-1 LC50, SRB assay, 48 hours exposure): 26.4 µM | PANC-1 TGI [6]: 2.64E−05 | GI50 [7]: 0.208 µM | CC50 ([7]; read-out: LOVO LC50, SRB assay, 48 hours exposure): 4.85 µM | LOVO TGI [7]: 7.57E−07 | GI50 [8]: 0.00751 µM | HELA TGI [8]: 1.15E−07 | GI50 [9]: 2.33 µM | CC50 ([9]; read-out: IGROV LC50, SRB assay, 48 hours exposure): 26.4 µM | IGROV TGI [9]: 2.64E−05 | GI50 [10]: 2.02 µM | CC50 ([10]; read-out: A-549 LC50, SRB assay, 48 hours exposure): 26.4 µM | A-549 TGI [10]: 2.16E−05 | GI50 [12]: 5.62 µM | CC50 ([12]; read-out: SK-BR-3 LC50, SRB assay, 48 hours exposure): 26.4 µM | SK-BR-3 TGI [12]: 1.60E−05 | GI50 [13]: 0.701 µM | CC50 ([13]; read-out: HT-29 LC50, SRB assay, 48 hours exposure): 26.4 µM | HT-29 TGI [13]: 2.64E−05 | GI50 [14]: 0.68 µM | CC50 ([14]; read-out: LOVO-DOX LC50, SRB assay, 48 hours exposure): 26.4 µM | LOVO-DOX TGI [14]: 1.61E−06
